Here are results for 87 molecules from PubChem BioAssay AID651569 (Sanford-Burnham Center for Chemical Genomics, 2012).

SMILES strings stand for the structures. Activity calls are given as the source filed them. How the calls were made is not given here. Where only a bound is given, the exact number is not on record here.

The term IC50 denotes the concentration at which inhibition is half-maximal.

This experiment deals with luminescent cytotoxicity (cell viability) counter-screen. The experiment in a line: cytotoxicity of Gli-SUFU antagonist hits, dose response, cytotoxicity control for Gli-SUFU antagonist project, cell-based, luminescence, uHTS hits (AID 651569).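 Further: compound exposure lasted overnight before the viability readout.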
`CCc1cc(C(=O)NC2CCCN(Cc3ccccc3F)C2)n(C)n1` (configuration not stated): the IC50 is > 20 µM (inactive).
Take `Cc1sc2ncnc(NCc3cccs3)c2c1C`: the IC50 is > 20 µM (inactive).
Regarding `COc1ccccc1CCNC(=O)C(=O)NCCC1CCCCN1S(=O)(=O)c1cccs1` (configuration not stated), the IC50 is 13.1 µM.
Take `COc1ccc(CNc2cc(C)nc3ncnn23)c(OC)c1`: the IC50 was > 20 µM (inactive).
In the case of `CCCCNc1c(-c2ccc(OC)c(Sc3ccc(OC)cc3)c2)nc2ccccn12`, the IC50 is 12.9 µM.
As for `O=C(C[C@@H]1C/C=C\C[C@@H](NC(=O)OCC2c3ccccc3-c3ccccc32)C(=O)OC[C@@H](Cc2ccccc2)NC1=O)NCCO`, the IC50 was > 20 µM (inactive).
As to `CC(=O)/C(=N\Nc1ccc(Cl)cc1Cl)Sc1cccc2cccnc12`, the IC50 was > 20 µM (inactive).
In the case of `Cc1sc2ncnc(NCC(C)(C)N3CCOCC3)c2c1C`, the IC50 was > 20 µM (inactive).
For the molecule `CC(=O)c1ccc(-n2cc(-c3ccc(C(C)(C)C)cc3)[n+]3c2SCCC3)cc1`, the IC50 is > 20 µM (inactive).
Take `CCN(CC)S(=O)(=O)c1ccc(S(=O)(=O)Nc2c(C)nn(C)c2C)cc1`: the IC50 is > 20 µM (inactive).
With `C=CCNc1nc2c(c(=O)n(C)c(=O)n2C)n1Cc1ccc(F)cc1`, the IC50 was > 20 µM (inactive).
On to `CCCN1CCC(=O)N([C@H](CSc2ccc(OC)cc2)Cc2ccccc2)CC1`, for which the IC50 was > 20 µM (inactive).
For `COc1ccc(CC(=O)Nc2cccc(S(=O)(=O)N3CCCCCC3)c2)cc1OC`, the IC50 was > 20 µM (inactive).
As for `CCn1c(/C=C/Nc2ccccc2)[n+](CC)c2cc(Cl)c(Cl)cc21`, the IC50 is 9.98 µM.
Regarding `COc1cc(C(=O)NC2CCN(C)CC2)ccc1Nc1ncc2c(n1)N(C1CCCCC1)CCC(=O)N2C`, the IC50 was 15.7 µM.
For the molecule `C=CCNC(=S)/N=c1/ccccn1Cc1ccccc1`, the IC50 is > 20 µM (inactive).
Regarding `CC(=O)c1c(C)[nH]c(C(=O)OCC(=O)Nc2sc3c(c2C#N)CCCC3)c1C`, the IC50 is > 20 µM (inactive).
The figure for `C=CCn1c(O)c(N=NC(=S)Nc2cccc(C)c2)c2ccccc21` is > 20 µM (inactive); for `O=C(Nc1ccccc1)C1=C[C@@H](C2CCCCC2)C[C@@H](OCCCCO)O1` it is > 20 µM (inactive).
For the molecule `CCC(C)NC(=O)CCC(=O)OC1O[C@H]2OC3(C)CC[C@H]4[C@H](C)CCC(C1C)C24OO3` (some centres not stated), the IC50 was > 20 µM (inactive).
Take `C=CCOc1nc2c(c(=O)n(C)c(=O)n2C)n1Cc1ccc(Cl)cc1Cl`: the IC50 is > 20 µM (inactive).
The figure for `COc1cccc2nc3c(C(=O)NCCN(C)C)cccc3cc12` is 10.6 µM.
With `C=C(C)CSc1nc2sc3c(c2c(=O)n1C1CCCCC1)CCN(C)C3` the figure was > 20 µM (inactive); with `Clc1ccc(-c2c[n+](Cc3ccc(Cl)cc3Cl)c3n2CCCCC3)cc1`, 9.17 µM; with `O=C(Nc1nc(-c2cccs2)cs1)c1cccc(S(=O)(=O)N2CCCCCC2)c1`, > 20 µM (inactive).
With `Cc1nc2ccccc2c2c1CC(C(C)(Cl)Br)O2` (configuration not stated) the figure was > 20 µM (inactive).
On to `COc1ccccc1CCNC(=O)c1cc(-c2ccncc2)nc2ccc(Br)cc12`, for which the IC50 was > 20 µM (inactive).
On to `Cc1cc(=O)[nH]c(SCC(=O)/C=C2\N(C)c3ccccc3C2(C)C)n1`, for which the IC50 was > 20 µM (inactive).
As for `CCN(CC)C(=O)c1ccc(S(=O)(=O)N2CCC(c3nc4ccccc4s3)CC2)cc1`, the IC50 was > 20 µM (inactive).
With `CC(C)CCOC(=O)C[N+](C)(C)CCOC1CC2CCC1(C)C2(C)C` (configuration not stated), the IC50 was > 20 µM (inactive).
On to `CC1CCCCC1NS(=O)(=O)c1ccc(S(=O)(=O)NCc2ccncc2)cc1` (configuration not stated), for which the IC50 is > 20 µM (inactive).
In the case of `Fc1ccc(-n2nnnc2-c2cnc(-c3cccs3)nc2C(F)(F)F)cc1`, the IC50 was 17 µM.
For the molecule `CNc1nc(NCc2ccccc2)c2ccccc2n1`, the IC50 was > 20 µM (inactive).
With `CC(C)Cc1ccc(C(C)C(=O)Nc2cccnc2)cc1` (configuration not stated), the IC50 is > 20 µM (inactive).
For `Cc1ccc(C(=O)N2CCN3C(=O)c4ccccc4C23c2ccc(Cl)cc2)cc1` (configuration not stated), the IC50 was > 20 µM (inactive).
`S=C(Nc1ccccc1)N1CCC(Cc2ccccc2)CC1`: the IC50 was > 20 µM (inactive).
The figure for `CC1CCN(c2c(NCc3ccc(C(=O)N4c5ccccc5CC4C)cc3)c(=O)c2=O)CC1` (configuration not stated) is > 20 µM (inactive); for `COc1ccc(-c2c[n+](CC(=O)c3ccccc3)c3n2CCCCC3)cc1` it is > 20 µM (inactive).
The figure for `COc1ccc(CN(C)Cc2nc(Cc3cccc(F)c3)no2)c2cccnc12` is > 20 µM (inactive).
For `CC(=O)N1c2ccc(S(=O)(=O)N3CCC(C(=O)N4CCCCC4)CC3)cc2CC1C` (configuration not stated), the IC50 was > 20 µM (inactive).
Consider `CCCn1c2c(c(=N)c3c1CCC3)CCCC2`, for which the IC50 is > 20 µM (inactive).
Regarding `CCCOc1ccc(Br)cc1CSC(=N)N`, the IC50 was 8.78 µM.
Regarding `CN(C)CCn1c2ccccc2c2nc3ccc([N+](=O)[O-])cc3cc21`, the IC50 was > 20 µM (inactive).
With `Cc1ccc(-c2csc(NC(=O)c3c(C)noc3C)n2)s1` the figure was > 20 µM (inactive).
On to `CCCc1c(CC)c(=N)c2ccccc2n1C`, for which the IC50 was > 20 µM (inactive).
On to `CCC(CC)CN1C(N(C)C)=NC[C@@H]1CC(C)C`, for which the IC50 is > 20 µM (inactive).
Regarding `CCOP(=O)(CCP(=O)(OCC)OCC)OCC.C[CH2][Sn]([Cl])([Cl])[CH2]C`, the IC50 is 12.6 µM.
On to `CCc1nc(N)nc(N)c1-c1ccc(N(C)Cc2ccccc2)c([N+](=O)[O-])c1`, for which the IC50 is 18.4 µM.
Take `O=C(c1cc2sccc2n1Cc1ccccc1)N1CCN(c2nc3ccccc3s2)CC1`: the IC50 is > 20 µM (inactive).
With `O=C(N[C@@H]1C/C=C\C[C@H](CC(=O)N(CCO)Cc2ccccc2)C(=O)NC[C@@H](c2ccccc2)OC1=O)OCC1c2ccccc2-c2ccccc21`, the IC50 is > 20 µM (inactive).
On to `O=C(Cn1c(-c2ccccc2)c[n+]2ccsc12)c1ccc(Br)cc1`, for which the IC50 was > 20 µM (inactive).
For the molecule `Cc1nc2ncccn2c1-c1csc(Nc2ccc(O)cc2)n1`, the IC50 was > 20 µM (inactive).
`Cc1cccc(CCN2C(N(C)C)=NC[C@@H]2CC(C)C)c1`: the IC50 is 18.2 µM.
Consider `COc1ccc2c(c1)c(C)cc[n+]2Cc1ccccc1`, for which the IC50 was > 20 µM (inactive).
On to `Cc1ccc2c(c1)c(C)cc[n+]2Cc1ccccc1`, for which the IC50 was > 20 µM (inactive).
In the case of `O=C(Nc1cccc(C(F)(F)F)c1)C1CCN(S(=O)(=O)c2ccc(N3CCCC3=O)cc2)CC1`, the IC50 was > 20 µM (inactive).
`COc1ccc(NS(=O)(=O)c2ccc(N3CCOCC3)c(N)c2)cc1`: the IC50 was > 20 µM (inactive).
For the molecule `CC(C)n1c(-c2ccco2)csc1=Nc1cccnc1`, the IC50 was > 20 µM (inactive).
Take `CCOC(=O)c1c(NC(=O)COc2cccc3c2CCN(C)C3=O)sc2c1CCC2`: the IC50 was > 20 µM (inactive).
Regarding `CCOc1ccc(-c2nc(CSCC(=O)NCC3CCCO3)c(C)o2)cc1` (configuration not stated), the IC50 was > 20 µM (inactive).
Take `Cc1nn(C)c(C)c1/C=C/C(=O)c1ccc(Cl)cc1Cl`: the IC50 is > 20 µM (inactive).
Regarding `Cc1nn(-c2ccc(NC(=O)c3ccncc3)cc2)c(C)c1Cl`, the IC50 is > 20 µM (inactive).
Turning to `CC(=O)c1cn(CCOc2ccccc2C)c2ccccc12`, the IC50 was > 20 µM (inactive).
As for `Cc1sc2ncnc(NCC(O)c3ccc([N+](=O)[O-])cc3)c2c1C` (configuration not stated), the IC50 was > 20 µM (inactive).
The figure for `C[N+]1(CC(=O)OC2CCCCCCCCCCC2)CCCC1` is > 20 µM (inactive).
Consider `Clc1ccc(-c2cn(-c3ccc(Cl)cc3)c3[n+]2CCCCC3)cc1`, for which the IC50 is > 20 µM (inactive).
For `Cc1cc(C)c(C(N)=O)c(SCC(=O)c2cc(C)n(-c3cc(C)on3)c2C)n1`, the IC50 is > 20 µM (inactive).
On to `Cc1nc2sccn2c1-c1csc(NCc2ccccc2)n1`, for which the IC50 was > 20 µM (inactive).
With `Cc1cc(C)c(C)c(S(=O)(=O)N2CCN(c3ncnc4ccccc34)CC2)c1C`, the IC50 was > 20 µM (inactive).
Take `CC1CCC(NC(=O)c2cccc(S(=O)(=O)N3CCN(c4ccccc4)CC3)c2)CC1` (configuration not stated): the IC50 was > 20 µM (inactive).
Take `Brc1ccc(-c2c[n+]3c(n2-c2ccccc2)SCC3)cc1`: the IC50 is > 20 µM (inactive).
As for `Nc1nc2ccccc2n1/N=C/c1ccc([N+](=O)[O-])s1`, the IC50 is > 20 µM (inactive).
On to `COCCNc1nc2c(c(=O)n(C)c(=O)n2C)n1Cc1cccc(C(F)(F)F)c1`, for which the IC50 is 12.4 µM.
As for `NC(=O)c1c(-c2ccc(Cl)cc2Cl)csc1NC(=O)Cc1ccccc1`, the IC50 is 16.8 µM.
With `CCCCOc1ccc(N2C(N)=NC(N)=NC23CCCCC3)cc1` the figure was > 20 µM (inactive); with `O=C(C1CCCCC1)N1CCN(c2ccnc3cc(Cl)ccc23)CC1`, > 20 µM (inactive); with `COc1ccc(-c2noc(CCCCC(=O)N3CCN(c4cc(C)ccc4C)CC3)n2)cc1`, > 20 µM (inactive).
As for `O=C(c1ccc(Cl)cc1)N1CCN(c2ccnc3cc(Cl)ccc23)CC1`, the IC50 was > 20 µM (inactive).
For `COc1ccc(CNc2ncnc3c2[nH]c2ccccc23)cc1`, the IC50 is > 20 µM (inactive).
Turning to `CCOC(=O)c1c(NC(=O)C(=O)N/N=C/c2ccccc2O)sc2c1CCCCC2`, the IC50 was 19 µM.
With `O=C(N[C@@H]1C/C=C\C[C@@H](CC(=O)N(CCO)Cc2ccccc2)C(=O)N[C@@H](c2ccccc2)COC1=O)OCC1c2ccccc2-c2ccccc21` the figure was > 20 µM (inactive).
With `CC(Sc1nc2ccccc2c(=O)n1C)C(=O)NC1CCCCC1C` (configuration not stated), the IC50 is 16.7 µM.
For `CCOC(=O)N1CCN(C(=O)c2ccc(CSc3ccc(Cl)cc3)cc2)CC1`, the IC50 was > 20 µM (inactive).
In the case of `C[n+]1c2n(c3ccccc31)N=C(c1ccccc1)CS2`, the IC50 was > 20 µM (inactive).
Regarding `COCCOc1nc2c(c(=O)n(C)c(=O)n2C)n1Cc1cccc(OC)c1`, the IC50 is > 20 µM (inactive).
For the molecule `CCCCCCn1c(=O)c(C(=O)Nc2cnccn2)c(O)c2ccccc21`, the IC50 is > 20 µM (inactive).
With `COc1ccc(NS(=O)(=O)c2cccc(NC(=O)c3ccc(S(=O)(=O)N4CCCCCC4)cc3)c2)cc1` the figure was > 20 µM (inactive).
